Data as given in US12416018B2, “Regulation of gene expression by aptamer-mediated modulation of alternative splicing” (MEIRAGTX GENE REGULATION LIMITED, priority 2015, dated 2025).
Entries after “also recorded” stand apart in the source; their conditions may differ. Like-named read-outs stand apart in the source and are kept apart here. Values belong to the molecule of their own block, whether it stands above or below them.

Experiments:
[1] = system: luciferase expression in HEK 293 cells; format: cell-based; settings: for induced luciferase level as percent of Con1 (maximal expression): guanine treatment (500 μM), HEK 293 cells; for fold induction of luciferase expression over un-induced baseline: 500 µM; for regulation of luciferase expression by guanine (in words): with or without 500 μM guanine
Experimental: (§1) Xpt-guanine aptamer with the following sequence: cactcatataat[…]cgact atgggtg (SEQ ID NO.: 10), was used to construct a riboswitch. Oligos containing the sequence of guanine aptamer and hairpin stem with 4 nucleotide 5′ overhang were synthesized (IDT), annealed and then ligated to BsaI-digested DHFR-acceptor vector. HEK 293 cells were transfected as described in Example 1. Four hours after transfection, the media was aspirated, and new media with or without 500 μM guanine was added. Luciferase expression was assayed 20 to 24 hrs after guanine treatment as described in Example 1 and Example 4. HepG2, AML12, RD and C2C12 (ATCC) were cultured using the protocol recommended by ATCC. The intron-exon-intron cassette containing the xpt-G17 riboswitch (SEQ ID NO.: 15) was inserted in the leader peptide sequences of the anti-KDR antibody gene and into the Stul site in mouse erythropoietin gene using Gibson cloning strategy (NEB). Constructs containing mouse erythropoietin (Epo) or anti-KDR antibody were transfected into HEK 293 cells. Four hour after transfection, the media was aspirated, and new media with or without 500 μM guanine was added. Supernatants were subjected to ELISA assay for the production of either anti-KDR antibody or the production of mouse Epo (R&D Systems).
(§2) Constructs were made using Golden Gate cloning strategy (NEB). […] Luciferase activity was assayed as described in Example 5.
The Con1 construct was used as a template for PCR amplification of intron fragments that have either upstream or downstream intron deletions. To generate constructs that have single intron deletions, PCR products were cloned into the constructs containing the xpt-G17 riboswitch using Golden Gate cloning strategy (NEB). To generate constructs with both upstream and downstream intron deletions, fragments released by EcoRI and BamHI from constructs with single deletions in the downstream intron sequence were cloned into EcoRI and BamHI-digested constructs with single deletions in the upstream intron sequence.
Sequences of mutant human Wilms tumor 1 exon 5 (mutWT1-e5, SEQ ID NO.: 61), SIRT1 exon 6 (SIRT1-e6, SEQ ID NO.: 62), mouse calcium/calmodulin-dependent protein kinase II delta exon 16, or 17 (Camk2d-e16 or e17, SEQ ID NOs.: 59, 60), and synthetic exon ENEEE (SEQ ID NO.: 63) were synthesized (IDT) and cloned into the DHFR-G17 vector in place of the DHFR exon using Gibson Cloning kit (NEB). Plasmid DNA was transfected into HEK 293 cells, treated with 500 μM guanine, and luciferase assay performed as described in Example 1. The sequences of each exon with 5′ and 3′ splice sites are shown with exonic sequences in uppercase letters (Table 5, SEQ ID NOS.: 59 to 63).

[2] = system: luciferase expression in HEK 293 cells; format: cell-based; settings: for luciferase expression with / without theophylline (in words): HEK 293 cells
Source text: A DHFR-acceptor vector was constructed to facilitate the cloning of an aptamer sequence attached to the hairpin stems with different length. The theophylline aptamer sequence used was: ggcgatac[…]gcagegtc (SEQ ID NO:9). Theophylline aptamer oligonucleotides (“oligos”) with 4 nucleotide overhang at 5′ end were synthesized (IDT), annealed and ligated to BsaI-digested DHFR-acceptor vector. HEK 293 cells were transfected with the luciferase reporter constructs with the regulation cassette containing the theophylline aptamer, as described in Example 1. Four hours after transfection, the media was aspirated, and new media with or without 3 mM theophylline was added, and luciferase was assayed 20 to 24 hours after theophylline treatment. The fold induction was expressed as the quotient of luciferase activity obtained in the presence of aptamer ligand divided by the value obtained in the absence of the aptamer ligand.

[3] = system: luciferase expression in HepG2 cells; format: cell-based
Experimental: as §1

xpt-G15 double cassette = assay: Guanine dose response of luciferase expression, xpt-G15 double; format: cell-based
Experimental: as §2

[4] = system: xpt-G17 containing cassette; assay: Guanine dose response of luciferase expression, single xpt-G17 cassette; format: cell-based; settings: single copy xpt-G17 cassette
Experimental: as §2

[5] = system: luciferase gene with two copies of the xpt-G15 containing regulatory cassette (xpt-G15 double); assay: Live animal bioluminescence imaging after hydrodynamic DNA delivery to mouse liver; format: in vivo, mice
Experimental: Hydrodynamic DNA delivery and drug treatment: 5 μg or 10 μg of endotoxin-free plasmid DNA containing the luciferase gene with two copies of the xpt-G15 containing regulatory cassette (xpt-G15 double, SEQ ID NO.: 64; Example 8, FIG. 8a), diluted in saline (Qiagen Endofree kit) was injected through tail vein in a volume of 10% body weight over 5 to 10 seconds to 6-7 weeks old CD-1 female mice. Guanosine (Sigma) was suspended in 0.5% methylcellulose/0.25% Tween 80 (Sigma) in water freshly and administrated orally at 2 hr and 12 hr post DNA injection, or, delivered through intraperitoneal injection (IP) at 5 hr, 12 hr, 16 hr and 24 hr post DNA delivery.
Noninvasive live animal bioluminescence imaging: before imaging, mice were anesthesized with 2% isoflurane, and injected with […] body weight of luciferin, and images were taken within 2 to 5 minutes after luciferin injection using Bruker Xtreme system at the indicated time point post DNA injection. Luciferase activity was expressed as mean photon/sec±s.d. The induction fold was calculated as the quotient of photon/sec obtained in mice treated with guanosine divided by value obtained in mice without guanosine treatment.

[6] = system: anti-KDR antibody production in HEK 293 cells; format: cell-based; settings: 500 μM guanine
Experimental: as §1

[7] = system: EGFP expression in HEK 293 cells; assay: Flow cytometry / imaging of EGFP with regulatory cassettes in HEK 293 cells; format: cell-based; settings: stably transfected HEK 293, 500 μM guanine
Experimental: The intron-mtDHFR-aptamer-intron cassette was PCR amplified and cloned using Golden Gate cloning strategy (NEB) into pEGFP-C1 vector. To obtain a cell line stably expressing EGFP with riboswitch, HEK-293 cells were electroporated with 20 ng of plasmid DNA. Forty eight hours after electroporation, cell culture was selected with 800 μg/ml G418 for 2 weeks for cells that stably express the cassette. Cells were trypsinized and cell suspension was subjected to flow cytometric analysis of intensity of GFP fluorescence using a Guava EasyCyte 8HT machine. The resulting data was analyzed using GuavaSoft2.2.2.
as §2

Molecule: DHFR_G14: luciferase construct with xpt-guanine aptamer cassette, truncated stem (chain 1 GTAGAAGGTAATGTGATAT; chain 2 CTATCACATTACGCAC; expressed or natural sequence)
induced luciferase level as percent of Con1 (maximal expression) [1]: ~100%

Molecule: DHFR_Theo13: theophylline aptamer cassette, 8 bp stem (chain 1 TTCAGTAGAAGGTAATGTGA; chain 2 GCACATTACGCACCAT; chemistry not fully specified)
luciferase expression with / without theophylline (in words) [2]: luciferase expression is suppressed in the absence of theophylline | luciferase level as percent of Con1 control vector ([2]; in the presence of theophylline (3 mM)): about 56%

Molecule: DHFR_G17: luciferase construct containing xpt-G17 regulatory cassette (SEQ ID NO: 15) (chain 1 GTAGAAGGTAATGTAT; chain 2 CTACATTACGCAC; chemistry not fully specified)
induced luciferase level as percent of Con1 (maximal expression) [1]: about 65% | fold induction of luciferase expression [3]: more than 500 fold

EC50 for xpt-G15 double relative to single xpt-G17 (times lower) (xpt-G15 double cassette; xpt-G15 double vs xpt-G17): 5 times | EC50 (xpt-G15 double cassette; xpt-G15 double, luciferase): 43 µM | EC50 [4]: 206 µM
Molecule: Nc1nc2nc[nH]c2c(=O)[nH]1 [guanine]

Molecule: DHFR_Theo14: theophylline aptamer cassette, 7 bp stem (chain 1 TTCAGTAGAAGGTAATGTA; chain 2 GACATTACGCACCAT; expressed or natural sequence)
luciferase expression with / without theophylline (in words) [2]: no luciferase expression either with or without theophylline

Molecule: DHFR_G16: luciferase construct with xpt-guanine aptamer cassette, truncated stem (chain 1 GTAGAAGGTAATGTTAT; chain 2 CTAACATTACGCAC; chemistry not fully specified)
fold induction of luciferase expression over un-induced baseline [1]: about 800 fold | induced luciferase level as percent of Con1 (maximal expression) [1]: 83%

Molecule: Nc1nc2c(ncn2[C@@H]2O[C@H](CO)[C@@H](O)[C@H]2O)c(=O)[nH]1 [guanosine]
fold induction at 100 mg/kg ([5]; Mus musculus, ip, 100 mg/kg guanosine intraperitoneally, 11 hours post DNA injection, read-out: fold induction of luciferase compared to uninduced baseline): 4.7 | fold induction at 300 mg/kg ([5]; Mus musculus, ip, 300 mg/kg guanosine intraperitoneally, 11 hours post DNA injection, read-out: fold induction of luciferase compared to uninduced baseline): 16.2 | luciferase expression in liver after oral guanosine (in words) ([5]; oral dosing 2 hr and 12 hr after DNA delivery): higher luciferase expression at 9 hours post DNA; also recorded: dose related activation of expression of the regulated target gene in the liver of the mice | time of highest luciferase expression post DNA injection ([5]; oral guanosine): 48 h

Molecule: DHFR_G15: luciferase construct with the xpt-G15 containing regulatory cassette (SEQ ID NO: 46) (chain 1 GTAGAAGGTAATGTGTAT; chain 2 CTACACATTACGCAC; chemistry not fully specified)
fold induction of luciferase expression over un-induced baseline [1]: 60 fold | induced luciferase level as percent of Con1 (maximal expression) [1]: ~100%

B1: xpt-G17: intron-exon-intron cassette containing the xpt-G17 guanine riboswitch, SEQ ID NO: 15, inserted in various target genes (nucleic acid)
DNA: GTGAGTCTATGGGACCCTTGATGTTTTCTTTCCCCTTCTTTTCTATGGTTAAGTTCATGTCATAGGAAGGGGAGAAGTAACAGGGTACACATATTGACCAAATCAGGGTAATTTTGCATTTGTAATTTTAAAAAATGCTTTCTTCTTTTAATATACTTTTTTGTTTATCTTATTTCTAATACTTTCCCTAATCTCTTTCTTTCAGGGCAATAATGATACAATGTATCATGCCGAGTAACGCTGTTTCTCTAACTTGTAGGAATGAATTCAGATATTTCCAGAGAATGAAAAAAAAATCTTCAGTAGAAGGTAATGTATAATCGCGTGGATATGGCACGCAAGTTTCTACCGGGCACCGTAAATGTCCGACTACATTACGCACCATTCTAAAGAATAACAGTGATAATTTCTGGGTTAAGGCAATAGCAATATTTCTGCATATAAATATTTCTGCATATAAATTGTAACTGATGTAAGAGGTTTCATATTGCTAATAGCAGCTACAATCCAGCTACCATTCTGCTTTTATTTTATGGTTGGGATAAGGCTGGATTATTCTGAGTCCAAGCTAGGCCCTTTTGCTAATCATGTTCATACCTCTTATCTTCCTCCCACAG
modifications: xpt-G17 riboswitch
induced antibody expression as percent of control construct containing the Con 1 intron sequences [6]: about 40% | time after guanine treatment at which fluorescence was detected [7]: 6 h

B2: Camk2d-e16: DHFR-G17 vector with mouse calcium/calmodulin-dependent protein kinase II delta exon 16 in place of DHFR exon; SEQ ID NO: 59 (nucleic acid)
DNA: GAGTAACGCTGTTTCTCTAACTTGTAGTGAGCCCCAAACTACTGTAATCCACAACCCTGACGGAAACAAGGTAATGT
regulation of luciferase expression by guanine (in words) ([1]; listed as CaMKIId-e16): equivalent fold induction to the DHFR exon with SRp40 activating mutation (mtDHFR) | regulation of luciferase expression by guanine (in words) ([1]; listed as CamkIId-e16): nearly equivalent fold induction compared to DHFR-xpt-G17

B3: 2IR-3: xpt-G17 cassette, two intron deletions; SEQ ID NO: 31 (nucleic acid)
DNA: GTGAGTCTATGGGACCCTTGATGTTTTCTTTCCCTGCTCAAATCAGGGTAATTTTGCATTTGTAATTTTAAAAAATGCTTTCTTCTTTTAATATACTTTTTTGTTTATCTTATTTCTAATACTTTCCCTAATCTCTTTCTTTCAGGGCAATAATGATACAATGTATCATGCCGAGTAACGCTGTTTCTCTAACTTGTAGGAATGAATTCAGATATTTCCAGAGAATGAAAAAAAAATCTTCAGTAGAAGGTAATGTATAATCGCGTGGATATGGCACGCAAGTTTCTACCGGGCACCGTAAATGTCCGACTACATTACGCACCATTCTAAAGAATAACAGTGATAATTTCTGGGTTAAGGCAATAGCTGCTGAGGTTTCATATTGCTAATAGCAGCTACAATCCAGCTACCATTCTGCTTTTATTTTATGGTTGGGATAAGGCTGGATTATTCTGAGTCCAAGCTAGGCCCTTTTGCTAATCATGTTCATACCTCTTATCTTCCTCCCACAG
modifications: xpt-G17-2IR-3
fold induction of luciferase expression over un-induced baseline [1]: 4744 fold | regulation of luciferase expression by guanine (in words) [1]: significant increase in the fold of target gene expression
